# What was measured:
# Type in all cases: cell-based, human
# HT-1080 cells [1] = assay: FITC Annexin V / propidium iodide apoptosis assay, HT-1080; settings: 10 μM
# Protocol: Already 2 h after administration of 10 μM dose, the system reaches a steady state with 18% of healthy cells, 17% of early apoptotic cells, and 58% of late apoptotic cells. It remains in this state for the entire period of observations, 24 h.
# (§1) Figure 3 GO-203-induced apoptosis in HT-1080 and ZR-75-1 cells as assessed by FITC Annexin V (AnV) and propidium iodide (PI) double staining. (A–D) Flow cytometry histograms for the cells incubated for 4 h with 10 μM of GO-203 and the untreated (control) cells. (E–H) Apoptotic fractions in the GO-203-treated and untreated (control) cells as a function of incubation time and GO-203 concentration; color coding is explained in the legend. TEXT PRINTED IN THE PICTURE: (B) GO-203: HT-1080: IV.(1.90 %); HT-1080: III.(52.62 %); HT-1080: I.(19.45 %); HT-1080: II.(26.04 %) | (D) GO-203: ZR-75-1: IV.(8.19 %); ZR-75-1: III.(8.65 %); ZR-75-1: I.(37.84 %); ZR-75-1: II.(45.32 %)
# (§2) The adherent cells were rinsed with PBS, harvested using trypsin-EDTA solution and suspended in the growth medium. To analyze cell cycle phase distribution, 200 μg/ml of saponin (Fluka, USA), 250 μg/ml RNase A, and 50 μg/ml of propidium iodide (both Sigma-Aldrich, USA) were added to each sample tube, thus obtaining DNA stain buffer. After 1 h incubation at room temperature, the samples were analyzed by flow cytometry. To detect apoptosis by flow cytometry, CellEvent Caspase-3/7 Green Flow Cytometry Assay Kit (Thermo Fisher Scientific, USA) and Annexin-V FITC conjugate (BD Biosciences, USA) in combination with propidium iodide have been employed following the manufacturer’s protocols.
# (§3) Cell fluorescence was measured using CytoFLEX (Beckman Coulter, USA) flow cytometer equipped with 3 lasers (405, 488 and 633 nm). Cells were gated on FSC/SSC to remove debris. Mean fluorescence intensity from 10,000 cells was acquired.
# ZR-75-1 cells [2] = assay: FITC Annexin V / propidium iodide apoptosis assay, ZR-75-1
# Protocol: as §1
# Similarly fast apoptotic process is observed in ZR-75-1, although this cell line is less susceptible to the cytotoxic effect of GO-203. 4 h after administration of 10 μM dose, 39% of the cells remain healthy, 43% undergo early apoptosis, and 9% are in the late apoptosis stage. This proportion remains unchanged after 24 h. The fact that GO-203-induced apoptosis occurs rapidly in both sensitive and relatively insensitive cell lines is relevant in the context of its cytotoxic mechanism (discussed later in the text).
# Also illustrated in Fig. 3G,H is the dose-dependent response of the treated cells. […] It is possible that apoptotic ZR-75-1 cells in quadrant II undergo disintegration instead of moving to quadrant III, Fig. 3D. Importantly, the Annexin V data are consistent with the results of the MTS assay which registers limited damage to the ZR-75-1 cells, see Fig. 2.
# as §2, §3
# HT-1080 cells [3] = assay: Caspase 3/7 activation assay (CellEvent / SYTOX), HT-1080; settings: 10 μM, 4 h, Fig. 4B
# Source text: (§4) A complementary perspective on GO-203-induced apoptosis is provided by the caspase 3/7 activation assay, Fig. 4. In both HT-1080 and ZR-75-1, the data offer a clear view of the early and late apoptotic populations. The time dependence illustrated in Fig. 4E,F confirms that the onset of apoptosis occurs sufficiently rapidly in both cell lines – by the time of flow-cytometry observations the system has already approached the steady state. In the literature there is some evidence that activation of executioner caspases may precede the translocation of phosphatidylserine to the outer leaf of the membrane. While this could be in principle relevant for comparison between the Annexin V assay and caspase activation assay, one should bear in mind that in our case both assays offer a snapshot of a fairly advanced apoptotic process.
# (§5) Figure 4 GO-203-induced apoptosis in HT-1080 and ZR-75-1 cells as assessed by the double staining with CellEvent caspase-3/7 green detection reagent and vital dye SYTOX. (A–D) Flow cytometry histograms for the cells incubated for 4 h with 10 μM of GO-203 and the untreated (control) cells. (E–G) Apoptotic fractions in the GO-203-treated and untreated (control) cells as a function of incubation time and GO-203 concentration. TEXT PRINTED IN THE PICTURE: (B) GO-203: HT-1080: IV.(0.11 %); HT-1080: III.(64.49 %); HT-1080: I.(12.21 %); HT-1080: II.(23.20 %) | (D) GO-203: ZR-75-1: IV.(0.40 %); ZR-75-1: III.(35.18 %); ZR-75-1: I.(28.95 %); ZR-75-1: II.(35.47 %)
# as §2, §3
# ZR-75-1 cells [4] = assay: Caspase 3/7 activation assay (CellEvent / SYTOX), ZR-75-1; settings: 10 μM, 4 h, Fig. 4D
# Source text: as §4, §5, §2, §3
# [5] = 4 h, representative plot Fig. 3B
# [6] = 10 μM, 4 h, representative plot Fig. 3D
# [7] = 10 μM, 4 h after administration
substance,measurement,setting,value
"[R]9CQCRRKN [GO-203, in clinical trials]",early apoptotic cells (Annexin V/PI),HT-1080 cells [1]; 2 h after administration,17%
same,late apoptotic cells (Annexin V/PI),HT-1080 cells [1]; 2 h after administration,58%
same,healthy cells (Annexin V/PI),HT-1080 cells [1]; 2 h after administration (steady state up to 24 h),18%
same,quadrant I fraction (Annexin V/PI dot plot),HT-1080 cells [1]; [5],19.45%
same,quadrant II fraction (Annexin V/PI dot plot),HT-1080 cells [1]; [5],26.04%
same,quadrant III fraction (Annexin V/PI dot plot),HT-1080 cells [1]; [5],52.62%
same,quadrant IV fraction (Annexin V/PI dot plot),HT-1080 cells [1]; [5],1.90%
same,quadrant I fraction (Annexin V/PI dot plot),ZR-75-1 cells [2]; [6],37.84%
same,quadrant II fraction (Annexin V/PI dot plot),ZR-75-1 cells [2]; [6],45.32%
same,quadrant III fraction (Annexin V/PI dot plot),ZR-75-1 cells [2]; [6],8.65%
same,quadrant IV fraction (Annexin V/PI dot plot),ZR-75-1 cells [2]; [6],8.19%
same,early apoptosis (Annexin V/PI),ZR-75-1 cells [2]; [7],43%
same,late apoptosis stage (Annexin V/PI),ZR-75-1 cells [2]; [7],9%
same,healthy cells (Annexin V/PI),"ZR-75-1 cells [2]; 10 μM, 4 h after administration (unchanged after 24 h)",39%
same,viable cells at highest dose (Annexin V/PI),ZR-75-1 cells [2]; 20 μM,a large proportion of the cells remains viable
same,quadrant I fraction (caspase-3/7 / SYTOX),HT-1080 cells [3],12.21%
same,quadrant II fraction (caspase-3/7 / SYTOX),HT-1080 cells [3],23.20%
same,quadrant III fraction (caspase-3/7 / SYTOX),HT-1080 cells [3],64.49%
same,quadrant IV fraction (caspase-3/7 / SYTOX),HT-1080 cells [3],0.11%
same,quadrant I fraction (caspase-3/7 / SYTOX),ZR-75-1 cells [4],28.95%
same,quadrant II fraction (caspase-3/7 / SYTOX),ZR-75-1 cells [4],35.47%
same,quadrant III fraction (caspase-3/7 / SYTOX),ZR-75-1 cells [4],35.18%
same,quadrant IV fraction (caspase-3/7 / SYTOX),ZR-75-1 cells [4],0.40%

# From article PMC5238392, “Origin of anti-tumor activity of the cysteine-containing GO peptides and further optimization of their cytotoxic properties” (Scientific Reports, 2017)
